Results reported in ChEMBL document CHEMBL4033666, “Synthesis and mechanistic evaluation of novel N'-benzylidene-carbohydrazide-1H-pyrazolo[3,4-b]pyridine derivatives as non-anionic antiplatelet agents” (Eur J Med Chem, 2017).
The source made the active and inactive calls.

Legend:
[1] = target: T1, Prostaglandin G/H synthase 1 (Ovis aries, UniProt P05979); test: Inhibition of ovine COX-1 assessed as reduction in PGH2 production up to 100 uM using arachidonic acid as substrate preincubated for 5 mins followed by substrate and hematin addition measured after 2 mins by ELISA relative to control; conditions: sheep
T1 sequence (P05979 whole entry): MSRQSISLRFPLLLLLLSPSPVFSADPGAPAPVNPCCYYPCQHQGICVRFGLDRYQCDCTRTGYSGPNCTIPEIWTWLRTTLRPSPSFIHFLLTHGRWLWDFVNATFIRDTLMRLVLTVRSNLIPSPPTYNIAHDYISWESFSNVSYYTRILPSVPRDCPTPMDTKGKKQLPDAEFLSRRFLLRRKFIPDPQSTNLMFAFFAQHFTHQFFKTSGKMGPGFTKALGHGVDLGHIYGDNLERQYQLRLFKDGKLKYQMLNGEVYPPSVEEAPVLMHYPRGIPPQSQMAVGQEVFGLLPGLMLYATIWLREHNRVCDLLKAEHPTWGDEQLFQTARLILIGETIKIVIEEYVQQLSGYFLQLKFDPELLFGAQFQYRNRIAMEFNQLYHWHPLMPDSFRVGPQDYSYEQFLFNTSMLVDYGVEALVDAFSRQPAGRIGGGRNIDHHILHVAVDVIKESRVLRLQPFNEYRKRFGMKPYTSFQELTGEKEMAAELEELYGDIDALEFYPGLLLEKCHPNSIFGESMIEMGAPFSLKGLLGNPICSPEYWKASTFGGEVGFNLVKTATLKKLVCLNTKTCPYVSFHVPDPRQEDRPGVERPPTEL

[2] = target: T2, Prostaglandin G/H synthase 2 (Homo sapiens, UniProt P35354); test: Inhibition of recombinant human COX-2 assessed as reduction in PGH2 production up to 100 uM using arachidonic acid as substrate preincubated for 5 mins followed by substrate and hematin addition measured after 2 mins by ELISA relative to control
T2 sequence (P35354 whole entry): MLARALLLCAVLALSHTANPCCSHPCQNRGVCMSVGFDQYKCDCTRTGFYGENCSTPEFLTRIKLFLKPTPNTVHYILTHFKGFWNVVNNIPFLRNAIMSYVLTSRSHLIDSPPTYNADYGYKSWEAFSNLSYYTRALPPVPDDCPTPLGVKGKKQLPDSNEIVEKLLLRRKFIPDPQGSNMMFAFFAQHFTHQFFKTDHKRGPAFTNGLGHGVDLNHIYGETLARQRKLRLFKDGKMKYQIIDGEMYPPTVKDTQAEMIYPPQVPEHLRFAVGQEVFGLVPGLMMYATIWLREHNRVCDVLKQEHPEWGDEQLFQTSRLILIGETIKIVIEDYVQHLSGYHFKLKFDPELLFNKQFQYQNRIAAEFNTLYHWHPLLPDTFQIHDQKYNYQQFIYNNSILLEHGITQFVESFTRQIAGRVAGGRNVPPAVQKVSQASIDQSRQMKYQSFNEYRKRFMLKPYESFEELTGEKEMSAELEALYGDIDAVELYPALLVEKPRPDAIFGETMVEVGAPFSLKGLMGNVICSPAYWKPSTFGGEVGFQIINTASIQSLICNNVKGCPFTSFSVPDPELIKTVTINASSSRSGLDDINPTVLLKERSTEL

Platelet [3] = test: Antiplatelet activity in human platelet rich plasma assessed as inhibition of arachidonic acid-induced platelet aggregation at 100 uM preincubated for 2 mins followed by arachidonic acid addition by turbidimetric method relative to control; type: functional
Platelet [4] = test: Antiplatelet activity in human platelet rich plasma assessed as inhibition of ADP-induced platelet aggregation at 100 uM preincubated for 2 mins followed by ADP addition by turbidimetric method relative to control; type: cell-based
Platelet [5] = test: Antiplatelet activity in human platelet rich plasma assessed as inhibition of collagen-induced platelet aggregation preincubated for 2 mins followed by collagen addition by turbidimetric method; type: cell-based
[6] = target: T3, Thromboxane-A synthase (Homo sapiens) (UniProt P24557); test: Inhibition of TXS in human platelet rich plasma assessed as decrease in TXB2 production at 100 uM using arachidonic acid after 5 mins by ELISA
T3 sequence (whole entry): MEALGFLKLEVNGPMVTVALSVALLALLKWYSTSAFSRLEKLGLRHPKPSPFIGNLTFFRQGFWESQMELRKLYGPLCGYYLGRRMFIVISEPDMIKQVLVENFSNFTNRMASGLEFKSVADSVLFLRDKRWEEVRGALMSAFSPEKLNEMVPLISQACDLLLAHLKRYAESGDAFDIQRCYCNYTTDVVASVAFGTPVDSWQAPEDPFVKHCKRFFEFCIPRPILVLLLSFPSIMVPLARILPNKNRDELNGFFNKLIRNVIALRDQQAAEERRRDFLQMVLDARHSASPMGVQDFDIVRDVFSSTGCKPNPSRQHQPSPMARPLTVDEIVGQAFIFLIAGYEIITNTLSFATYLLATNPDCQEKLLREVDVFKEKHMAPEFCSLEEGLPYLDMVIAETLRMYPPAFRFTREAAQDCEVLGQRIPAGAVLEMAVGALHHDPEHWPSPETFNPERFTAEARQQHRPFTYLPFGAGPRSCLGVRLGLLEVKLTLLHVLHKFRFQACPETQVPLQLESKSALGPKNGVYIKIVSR

Platelet [7] = test: Drug uptake in human platelet assessed as co-localization with CD31 at 100 uM by epifluorescence assay; type: ADME, cell-based
Platelet [8] = test: Antiplatelet activity in human platelet rich plasma assessed as inhibition of collagen-induced platelet aggregation at 100 uM preincubated for 2 mins followed by collagen addition by turbidimetric method relative to control; type: cell-based
Platelet [9] = test: Antiplatelet activity in human platelet rich plasma assessed as inhibition of epinephrine-induced platelet aggregation preincubated for 2 mins followed by epinephrine addition by turbidimetric method; type: cell-based
[10] = target: Prostaglandin G/H synthase 1 (Homo sapiens, UniProt P23219); test: Inhibition of COX1 in human platelet rich plasma assessed as decrease in PGE2 production at 100 uM using arachidonic acid as substrate after 5 mins by ELISA
Platelet [11] = test: Drug uptake in human platelet assessed as co-localization with CD31 at 100 uM by confocal microscopy analysis; type: ADME, cell-based
Platelet [12] = test: Antiplatelet activity in human platelet rich plasma assessed as inhibition of arachidonic acid-induced platelet aggregation preincubated for 2 mins followed by arachidonic acid addition by turbidimetric method relative to control; type: functional, cell-based
Plasma [13] = test: Change in prothrombin time in human plasma at 100 uM incubated for 15 mins at room temperature and 2 mins at 37 degC in presence of calcium thromboplastin; type: ADME, cell-free
Platelet [14] = test: Antiplatelet activity in human platelet rich plasma assessed as inhibition of ADP-induced platelet aggregation preincubated for 2 mins followed by ADP addition by turbidimetric method; type: cell-based
Platelet [15] = test: Antiplatelet activity in human platelet rich plasma assessed as inhibition of […]-induced platelet aggregation at 100 uM preincubated for 2 mins followed by […] addition by turbidimetric method; type: functional, cell-based
Blood = test: Reduction of clot retraction in human whole blood after 2 hrs; type: ADME, tissue-based
Platelet [16] = test: Antiplatelet activity in human platelet rich plasma assessed as inhibition of epinephrine-induced platelet aggregation at 100 uM preincubated for 2 mins followed by epinephrine addition by turbidimetric method relative to control; type: cell-based
[17] = Binding affinity to DOPC/DOPS large unilamellar vesicles assessed as blue shift at 100 uM by DAPI staining based fluorescence assay
Plasma [18] = test: Change in activated partial thromboplastin time in human plasma at 100 uM incubated for 15 mins at room temperature and 2 mins at 37 degC in presence of CaCl2; type: ADME, cell-free
Cytochrome P450 3A4 = Cytochrome P450 3A4 (Homo sapiens, UniProt P08684); test: Inhibition of recombinant human CYP3A4 expressed in baculosomes using BOMR as substrate preincubated for 10 mins followed by substrate/NADP+ addition measured for 1 hr; type: ADME
[19] = Hemolytic activity against human erythrocytes after 3 hrs relative to control; type: ADME, cell-based, Erythrocyte; conditions: read-out: Activity

Chain of Prostaglandin G/H synthase 1 (Homo sapiens, UniProt P23219) (P23219 whole entry): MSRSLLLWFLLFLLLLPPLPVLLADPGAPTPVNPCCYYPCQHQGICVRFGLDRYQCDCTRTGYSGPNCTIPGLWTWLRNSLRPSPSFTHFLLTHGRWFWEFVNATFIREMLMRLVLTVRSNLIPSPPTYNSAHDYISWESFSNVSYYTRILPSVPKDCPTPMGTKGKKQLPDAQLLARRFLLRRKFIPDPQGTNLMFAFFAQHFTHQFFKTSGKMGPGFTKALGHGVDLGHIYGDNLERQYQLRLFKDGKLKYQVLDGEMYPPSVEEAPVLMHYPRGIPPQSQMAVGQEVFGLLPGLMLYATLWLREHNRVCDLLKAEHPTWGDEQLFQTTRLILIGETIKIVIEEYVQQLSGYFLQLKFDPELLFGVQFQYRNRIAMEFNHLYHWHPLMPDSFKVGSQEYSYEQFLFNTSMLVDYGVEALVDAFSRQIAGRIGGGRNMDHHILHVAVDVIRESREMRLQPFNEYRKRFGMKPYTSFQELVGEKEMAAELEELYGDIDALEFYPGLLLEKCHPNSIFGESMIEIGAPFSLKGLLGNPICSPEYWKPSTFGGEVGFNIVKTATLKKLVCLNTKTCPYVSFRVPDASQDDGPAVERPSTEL
Chain of Cytochrome P450 3A4 (P08684 whole entry): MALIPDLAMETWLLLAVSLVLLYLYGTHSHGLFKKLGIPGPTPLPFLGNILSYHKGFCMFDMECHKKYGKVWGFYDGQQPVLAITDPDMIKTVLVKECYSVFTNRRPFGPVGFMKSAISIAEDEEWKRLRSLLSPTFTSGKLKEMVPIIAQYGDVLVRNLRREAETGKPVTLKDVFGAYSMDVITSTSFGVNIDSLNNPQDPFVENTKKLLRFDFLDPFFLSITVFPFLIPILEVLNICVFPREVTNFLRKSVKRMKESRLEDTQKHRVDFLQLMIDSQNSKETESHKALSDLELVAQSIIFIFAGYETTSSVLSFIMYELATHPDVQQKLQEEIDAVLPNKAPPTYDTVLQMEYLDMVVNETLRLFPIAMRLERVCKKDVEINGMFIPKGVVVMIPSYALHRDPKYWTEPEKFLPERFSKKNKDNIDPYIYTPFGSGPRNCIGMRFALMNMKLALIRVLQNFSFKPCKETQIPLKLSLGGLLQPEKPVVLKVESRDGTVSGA

For `Cc1cc(C(=O)N/N=C/c2ccc([N+](=O)[O-])cc2)c2c(C)nn(-c3ccccc3)c2n1`, the “inhibition (INH)” value [1] was “Not Active”, the “inhibition (INH)” value [2] was “Not Active” and the inhibition at 100 µM (Platelet [3]) was 95%. For the same compound, the inhibition at 100 µM (Platelet [4]) was 0%, the IC50 (Platelet [5]) was over 100 µM and the inhibition [6] was “Active”. The Drug uptake (Platelet [7]) was “Active”, the inhibition at 100 µM (Platelet [8]) was 4.1% and the IC50 (Platelet [9]) was over 100 µM. The “inhibition (INH)” value [10] was “Not Active”, the Drug uptake (Platelet [11]) was “Active” and the IC50 (Platelet [12]) was 78.9 µM. For the same compound, the Activity (Plasma [13]) was “Non-Toxic”, the IC50 (Platelet [14]) was over 100 µM and the inhibition (Platelet [15]) was “inactive”. For the same compound, the Activity (Blood) was “Non-Toxic”, the inhibition at 100 µM (Platelet [16]) was 4.15% and the Activity [17] was “Active”. The Activity (Plasma [18]) was “Non-Toxic”, the IC50 (Cytochrome P450 3A4) was 156 µM and the hemolysis at 3 h [19] was 7.3%.

`Cc1nn(-c2ccccc2)c2nc(C(F)(F)F)cc(C(=O)N/N=C/c3ccc(Br)cc3)c12` gave an inhibition at 100 µM (Platelet [3]) of 6.18%, an inhibition at 100 µM (Platelet [4]) of 7.46% and an inhibition at 100 µM (Platelet [8]) of 5.37%. The Activity (Plasma [13]) was “Non-Toxic”, the inhibition at 100 µM (Platelet [16]) was 1.52% and the Activity (Plasma [18]) was “Non-Toxic”.

Work on `Cc1nn(-c2ccccc2)c2nc(C(F)(F)F)cc(C(=O)N/N=C/c3ccc(Cl)cc3)c12` yielded an inhibition at 100 µM (Platelet [3]) of 6.71%, an inhibition at 100 µM (Platelet [4]) of 10.1% and an inhibition at 100 µM (Platelet [8]) of 0%. For the same compound, the Activity (Plasma [13]) was “Non-Toxic”, the inhibition at 100 µM (Platelet [16]) was 17% and the Activity (Plasma [18]) was “Non-Toxic”.

In the case of `Cc1nn(-c2ccccc2)c2nc(C(F)(F)F)cc(C(=O)N/N=C/c3ccc(F)cc3)c12`, the inhibition at 100 µM (Platelet [3]) is reported as 0%, the inhibition at 100 µM (Platelet [4]) is reported as 7.95% and the inhibition at 100 µM (Platelet [8]) is reported as 0.3%. The Activity (Plasma [13]) was “Non-Toxic”, the inhibition at 100 µM (Platelet [16]) was 0% and the Activity (Plasma [18]) was “Non-Toxic”.

With `COc1ccc(/C=N/NC(=O)c2cc(C(F)(F)F)nc3c2c(C)nn3-c2ccccc2)cc1` the inhibition at 100 µM (Platelet [3]) was 2.39%, the inhibition at 100 µM (Platelet [4]) was 0% and the inhibition at 100 µM (Platelet [8]) was 0%. The Activity (Plasma [13]) was “Non-Toxic”, the inhibition at 100 µM (Platelet [16]) was 0% and the Activity (Plasma [18]) was “Non-Toxic”.

In the case of `CC(=O)Oc1ccccc1C(=O)O` [ASPIRIN], the inhibition at 100 µM (Platelet [3]) is reported as 96.6%, the inhibition at 100 µM (Platelet [4]) is reported as 41.9% and the inhibition [6] is reported as “Active”. The inhibition at 100 µM (Platelet [8]) was 85.3%, the IC50 (Platelet [12]) was 37.6 µM and the inhibition at 100 µM (Platelet [16]) was 58.6%.

With `O=C(O)/C=C/c1ccc(Cn2ccnc2)cc1` [OZAGREL] the inhibition [6] was “Active” and the IC50 (Platelet [12]) was 53.1 µM.

`Cc1nn(-c2ccccc2)c2nc(C(F)(F)F)cc(C(=O)N/N=C/c3ccc(C#N)cc3)c12` gave an inhibition at 100 µM (Platelet [3]) of 4.77%, an inhibition at 100 µM (Platelet [4]) of 4.55% and an inhibition at 100 µM (Platelet [8]) of 3.59%. For the same compound, the Activity (Plasma [13]) was “Non-Toxic”, the inhibition at 100 µM (Platelet [16]) was 0% and the Activity (Plasma [18]) was “Non-Toxic”.
